Measurements taken from PubChem BioAssay (NCI).
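In this assay, cells in 96-well plates receive the compound at five concentrations for 48 hours. Endpoints are linearly interpolated between the surrounding concentrations. TGI is the concentration that stops growth completely.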

How the values were obtained:
Assay in all cases: inhibition of tumour cell growth, NCI panel, 48 h
SW-620 colon = tested on: SW-620 colon
MOLT-4 leukemia = tested on: MOLT-4 leukemia
COLO 205 colon = tested on: COLO 205 colon
SN12C renal = tested on: SN12C renal
DU-145 prostate = tested on: DU-145 prostate
M14 melanoma = tested on: M14 melanoma
SNB-19 CNS = tested on: SNB-19 CNS
SK-MEL-5 melanoma = tested on: SK-MEL-5 melanoma
SK-MEL-28 melanoma = tested on: SK-MEL-28 melanoma
BT-549 breast = tested on: BT-549 breast
HCT-15 colon = tested on: HCT-15 colon

SMILES	TGI (SW-620 colon)	TGI (MOLT-4 leukemia)	TGI (COLO 205 colon)	TGI (SN12C renal)	TGI (DU-145 prostate)	TGI (M14 melanoma)	TGI (SNB-19 CNS)	TGI (SK-MEL-5 melanoma)	TGI (SK-MEL-28 melanoma)	TGI (BT-549 breast)	TGI (HCT-15 colon)
Cc1c(-c2ccccc2)c(-c2ccc(OCCN(C)C)cc2)n2ccccc12	17.9 µM	15.8 µM	3.08 µM	25.4 µM	26.3 µM	3.45 µM	25.3 µM	3.44 µM	3.45 µM	18.7 µM	8.06 µM
Cc1ccc2c(c1)C(C1Cc3c(C)cccc3C1=O)OC2=O (stereo not drawn)	> 100 µM	> 100 µM	> 100 µM	> 100 µM	> 100 µM	> 100 µM	> 100 µM	> 100 µM	> 100 µM	> 100 µM	> 100 µM
CCOP(=O)(CS(C)=O)O[C@@H]1C[C@H](C)CC[C@H]1C(C)C (stereo partly drawn)	14.6 µM	> 100 µM	19.8 µM	6.12 µM	26.2 µM	31.2 µM	25.7 µM	6.85 µM	> 100 µM	17.3 µM	7.81 µM
CCCCCCN(C(=O)Oc1ccccc1)C(C#N)c1ccccc1 (stereo not drawn)	> 100 µM	> 100 µM	> 100 µM	> 100 µM	> 100 µM	> 100 µM	> 100 µM	> 100 µM	> 100 µM	> 100 µM	> 100 µM
CC(=O)NNC=N/C(C#N)=C(\N)C#N	> 100 µM	> 100 µM	> 100 µM	> 100 µM	> 100 µM	> 100 µM	> 100 µM	> 100 µM	> 100 µM	> 100 µM	> 100 µM
Cn1c(=O)nc2n(CCO)c(-c3ccccc3)c(-c3ccccc3)nc-2c1=O	> 100 µM	> 100 µM	> 100 µM	> 100 µM	> 100 µM	> 100 µM	> 100 µM	> 100 µM	> 100 µM	> 100 µM	> 100 µM
COc1cc(C2c3cccc4cccc(c34)C3CCC(=O)N32)cc(O)c1O (stereo not drawn)	> 50 µM	41.6 µM	> 50 µM	> 50 µM	> 50 µM	> 50 µM	> 50 µM		> 50 µM	> 50 µM	> 50 µM
COc1ccccc1NC(=O)C(C#N)=C(SC)SC	> 100 µM	> 100 µM	> 100 µM	> 100 µM	> 100 µM	> 100 µM	> 100 µM	> 100 µM	> 100 µM	> 100 µM	> 100 µM
CC(=O)Nc1c(C)cc(OCC(=O)O)cc1C	> 100 µM		> 100 µM	> 100 µM	> 100 µM	> 100 µM	> 100 µM	> 100 µM	> 100 µM	> 100 µM	> 100 µM
CC1=NC(=Cc2ccc(Cl)cc2)C(=O)N1n1c(-c2ccccc2)nc2ccccc2c1=O	> 100 µM	> 100 µM	> 100 µM	> 100 µM	> 100 µM	> 100 µM	> 100 µM	> 100 µM	> 100 µM	> 100 µM	> 100 µM
Oc1ccccc1C=Nc1ccc(Oc2ccc(Cl)cc2)c(Cl)c1	> 100 µM	> 100 µM	41.1 µM	41.4 µM	> 100 µM	46 µM	49.6 µM	50.9 µM	72.5 µM	44.4 µM	36.6 µM
Fc1ccc(C(OCCN2CCC3CCC(C2)N3CCCc2ccccc2)c2ccc(F)cc2)cc1 (stereo not drawn)	19.9 µM	7.86 µM	2.67 µM	12.7 µM	22.8 µM	4.76 µM	22.3 µM	3.22 µM	6.53 µM	21.1 µM	14.5 µM
CC[C@@]1(O)C(=O)OCc2c1c(Cl)c1n(c2=O)Cc2cc3ccccc3nc2-1	> 100 µM	19.3 µM	> 100 µM	> 61.8 µM	8.63 µM	9.04 µM	56.7 µM	5.42 µM	> 100 µM	> 47.7 µM	> 81.6 µM
C/C(C=O)=N\Nc1cc(C)c2ccccc2n1	72.8 µM	36.8 µM	33.2 µM	33 µM	29.9 µM	31.8 µM	52 µM	29.9 µM	39.1 µM	26.6 µM	26.3 µM
COc1ccc(/C=C/C(=O)NCC(NC(=O)/C=C/c2ccc(OC)c(OC)c2)C(=O)O)cc1OC (stereo not drawn)	> 100 µM	> 100 µM	> 100 µM	> 100 µM	> 100 µM	> 100 µM	> 100 µM	> 100 µM	> 100 µM	> 100 µM	
O=C1/C(=C/c2cccc([N+](=O)[O-])c2)CCCc2ccccc21	17 µM	34 µM	32.8 µM	33.1 µM	28.2 µM	26.7 µM	28.5 µM		28.6 µM	28.1 µM	23 µM
N#C/C(=C\c1ccc(Cl)cc1)c1nc2ccccc2c(=O)[nH]1	> 100 µM	> 100 µM	> 100 µM	> 100 µM	> 100 µM	> 100 µM	> 100 µM	> 100 µM	> 100 µM	69.2 µM	> 100 µM
COc1ccc(NC=O)c(C(O)CCNC(C)=O)c1 (stereo not drawn)	> 100 µM	> 100 µM	> 100 µM	> 100 µM	> 100 µM	> 100 µM	> 100 µM	> 100 µM		> 100 µM	> 100 µM
NC(=S)N/N=C/c1cc(CN2CCOCC2)c(N)cn1	> 100 µM	> 100 µM	> 100 µM	> 100 µM	> 100 µM	50.9 µM	> 100 µM	> 100 µM		> 100 µM	> 100 µM
CN(CCO)CC(=O)CC(O)(C(F)(F)F)C(F)(F)F	> 100 µM	> 100 µM	> 100 µM		> 100 µM	> 100 µM	> 100 µM	31.8 µM	> 100 µM	> 100 µM	> 100 µM
CC1C2CC(C(C3C(=O)C4CC3C(C)(C)C4C)C2=O)C1(C)C (stereo not drawn)	> 100 µM	> 100 µM	> 100 µM	> 100 µM	> 100 µM	> 100 µM	> 100 µM	> 100 µM	> 100 µM	> 100 µM	
